According to paper PMC8851282, “Senolysis induced by 25-hydroxycholesterol targets CRYAB in multiple cell types” (iScience, 2022):

Tests used:
[1] = test system: 15-d-PGJ2; test: 15-d-PGJ2 ELISA in urine of aged mice given 25HC; assay type: in vivo, mouse; conditions: 24–26-month-old mice, both genders; urine 12 h after the first treatment with 25HC 50 mg/kg i.p., relative to controls
Description: Figure 9 25HC is an in vivo senolytic in tissues of aged mice (A) Timeline of 25HC treatment in aged mice. Young (5 months old) and old (24–26 months old) mice were treated with 25HC or vehicle for 5 consecutive days. (B) Mass of gastrocnemius muscles in male and female mice. Muscle weight was normalized to body weight. (C) Cdkn1a and Cryab mRNA levels in gastrocnemius (Gastroc) and soleus (Sol) muscles. RNA was collected at 7–9 d after the first treatment with 25HC or vehicle. mRNA levels of the indicated genes were quantified by qRT-PCR, and normalized to those of actin mRNA. The average value of young-vehicle was set at 1. (D) 15-d-PGJ2 analysis in urine. […]
Two groups of male and female C57BL/6J mice were used. […] Senescence markers and CRYAB were analyzed using mRNA from gastrocnemius (Gastroc), soleus (So), tibialis anterior (TA), visceral fat (VF), kidney (Ki), liver (Li), lung (Lu), heart (He), and skin (Sk) samples using qRT-PCR (Figures S14, S15, S16, S17, and S18).
Urine was collected at 12 or 24 h after the first treatment with 25HC or vehicle and diluted 10-fold with assay buffer. The amount of 15-d-PGJ2 was measured using a 15-deoxy-Δ^12,14-PGJ2 ELISA kit according to manufactures’ protocol (Enzo Life Sciences).

[2] = test system: mouse dermal fibroblasts (mDFs); test: Cell viability assay of NS and SEN mouse dermal fibroblasts treated with CRYAB and HMOX1 inhibitors; assay type: cell-based; conditions: 250 nM Doxo-induced senescence; after 72 h of treatment; 25HC at five or 10 μM
Description: The average value of DMSO was set at 1. (B and D) Effects of CRYAB and HMOX1 inhibitors on DMSO-treated NS or Doxo-treated SEN cells; (B) mDFs, (D) IMR-90s. Cells were treated with the inhibitors at the indicated concentrations. Cell viability was measured after 72 h. (C) IMR-90 qRT-PCR. For qPCR: mean +/- SE, n =4, ∗p< 0.05, ∗∗p< 0.01, ∗∗∗p<0.001, ∗∗∗∗p<0.0001 by Dunnett’s multiple comparisons test vs DMSO. For cell viability assays: mean +/- SE, n =3, ∗∗p< 0.01, ∗∗∗p<0.001, ∗∗∗∗p<0.0001 vs 0 mM by student’s t test.
For skin sample collection, mice were euthanized, hair removed from dorsal skin and the area cleaned with alcohol. A small 1 cm x 1 cm region of skin was removed, and subcutaneous fat removed by scalpel. Skin was digested in 2–3 ml of 0.25% trypsin at 37 °C for 1 h. Hair and epidermis were further removed, and the dermis was minced into 2–3 mm pieces. Digestion of the sample in 5 ml of 1 mg/ml collagenase (Sigma, Cat#C5138) in HBSS (with Ca^++ and Mg^++) (Gibco, cat#24020117) was carried out at 37 °C on a shaker for 1 h. Collagenase digestion was stopped by addition of 10 ml 10% FBS DMEM. Filtration of the homogenate through a 70-micron mesh was performed to remove undigested tissue. Differential centrifugation and washing were performed at 1200 rpm for 5 min, and the pellet was resuspended in 10% FBS DMEM then seeded in a six-well plate. Media were changed at 5 days after seeding and then every 3 days.
All experiments were performed in incubators at 37 °C, 3% O2 and 5% CO2. Senescence was induced by treatment with either Doxo (250 nM for 24 h) ([Demaria et al., 2017]) or X-irradiation (10 Gy) ([Limbad et al., 2020]). For cell culture studies using 25HC, it was used at the indicated concentrations in the media.
Cell viability was assessed using a cell counting kit-8 from Dojindo Molecular Technologies, Inc (Cat CK04-20). Cells were incubated with culture media + 10% kit cell viability reagent, 150 μL/well in 96-well plates for 2 h. The supernatant was transferred to a new 96-well plate and absorbance read at 450 nm as recommended in the product datasheet.

C[C@H](CCCC(C)(C)O)[C@H]1CC[C@H]2[C@@H]3CC=C4C[C@@H](O)CC[C@]4(C)[C@H]3CC[C@]12C [25HC, 25-hydroxycholesterol]
15-d-PGJ2 level in urine [1]: greater
senolysis in mDF cells [2]: induced significant senolysis
